Experimental data as given in patent US20250163104A1, “MACROCYCLIC IMMUNOMODULATORS” (priority 2021, published 2025).
Where a SMILES comes first, the peptide text is derived from it. Bridges are numbered along the chain shown (N, C = ends). [ ]: non-standard residue; d: D form. The star is where a group is joined. ξ: configuration not given here. Phe(4-COOH) = N[C@@H](Cc1ccc(C(=O)O)cc1)C(=O)O; Bip = N[C@@H](Cc1ccc(-c2ccccc2)cc1)C(=O)O; Ala(2-furyl) = N[C@@H](Cc1ccco1)C(=O)O; Phe(3-F) = N[C@@H](Cc1cccc(F)c1)C(=O)O; Phe(3-Me) = Cc1cccc(C[C@H](N)C(=O)O)c1; Phe(4-F) = N[C@@H](Cc1ccc(F)cc1)C(=O)O; Val(3-OH) = CC(C)(O)[C@H](N)C(=O)O; αMeF = C[C@](N)(Cc1ccccc1)C(=O)O; ξW = NC(Cc1c[nH]c2ccccc12)C(=O)O; 3Pal = N[C@@H](Cc1cccnc1)C(=O)O; 4Pal = N[C@@H](Cc1ccncc1)C(=O)O; Cha = N[C@@H](CC1CCCCC1)C(=O)O; Cit = NC(=O)NCCC[C@H](N)C(=O)O; Ile(3ξ) = CCC(C)[C@H](N)C(=O)O; Thr(3ξ) = CC(O)[C@H](N)C(=O)O; Carboxymethyl = O=C(O)C*; Orn = NCCC[C@H](N)C(=O)O; Dab = NCC[C@H](N)C(=O)O; Dap = NC[C@H](N)C(=O)O; Piv = CC(C)(C)C(=O)*

molecular target: T1, human PD-1 / PD-L1-Ig binding on Jurkat cell line over-expressing human PD-1 (Jurkat-PD-1) (Homo sapiens, UniProt Q15116); assay: Jurkat-PD-1 Cell Binding High-Content Screening Assay (CBA); format: cell-based; conditions: Jurkat HPD1_PDL1 IC50, Jurkat-PD-1 cells, PE-labeled PD-L1-Ig 20 nM final
T1 construct: expressed in transfected cells; host or cells: Jurkat
T1 sequence (Q15116 25-288): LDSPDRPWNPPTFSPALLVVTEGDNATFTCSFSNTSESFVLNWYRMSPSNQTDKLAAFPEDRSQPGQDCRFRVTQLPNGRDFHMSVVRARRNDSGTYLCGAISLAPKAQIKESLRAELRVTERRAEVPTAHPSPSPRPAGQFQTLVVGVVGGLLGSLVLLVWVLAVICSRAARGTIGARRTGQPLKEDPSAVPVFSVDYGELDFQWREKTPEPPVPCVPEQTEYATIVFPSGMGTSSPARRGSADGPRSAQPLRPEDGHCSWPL
How it was run: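 Read-out: high-content imaging of PE-tagged PD-L1-Ig bound to Jurkat cells overexpressing human PD-1, after fixation with 4% paraformaldehyde and Hoechst 33342 nuclear staining. Ligand was used at 20 nM final for 1 hour, after a 2 h compound exposure at 37° C in serum-containing DMEM.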

Compound	IC50 [nM]
Cc1cccc(C[C@@H]2NC(=O)[C@H](CC(=O)O)NC(=O)[C@H](Cc3ccncc3)NC(=O)[C@H](Cc3ccc(OCC(=O)O)cc3)NC(=O)CSC[C@@H](C(=O)NCC(N)=O)NC(=O)[C@H](CO)NC(=O)[C@H](C(C)C)NC(=O)[C@H](CC3CCCCC3)NC(=O)[C@H](Cc3c[nH]cn3)NC(=O)[C@@H](CC(C)C)NC(=O)[C@H](CCCN)NC(=O)[C@H](C(C)C)NC(=O)[C@H](Cc3ccc(-c4ccccc4)cc3)NC(=O)[C@H](CC(C)C)NC2=O)c1 [Compound 1585] ({CH2CO}-Y(Carboxymethyl)[4Pal]D[Phe(3-Me)]L[Bip]V[Orn][dL]H[Cha]VSCG-NH2; thioether N-14)	50.4

same assay, conditions: Jurkat-PD-1 cells, PE-labeled PD-L1-Ig 20 nM final; read-out: Jurkat HPD1_PDL1 IC50

IC50 [nM]	Compound
80.6	CC(C)[C@@H]1NC(=O)[C@H](Cc2c[nH]c3ccccc23)NC(=O)[C@H](CC(=O)O)NC(=O)[C@H](Cc2ccc(C(=O)O)cc2)NC(=O)[C@H](Cc2ccncc2)NC(=O)CSC[C@@H](C(=O)NCC(N)=O)NC(=O)[C@H](CO)NC(=O)[C@H](C(C)C)NC(=O)[C@H](CC2CCCCC2)NC(=O)[C@H](CCN)NC(=O)[C@@H](C)NC(=O)[C@H](CCCN)NC(=O)[C@H](CCN)NC(=O)[C@H](Cc2ccc(-c3ccccc3)cc2)NC1=O [Compound 2544] ({CH2CO}-[4Pal][Phe(4-COOH)]DWV[Bip][Dab][Orn][dA][Dab][Cha]VSCG-NH2; thioether N-14)
21.5	CCC(C)[C@@H]1NC(=O)[C@H](Cc2ccc(-c3ccccc3)cc2)NC(=O)[C@H](C(C)C)NC(=O)[C@H](Cc2c[nH]c3ccccc23)NC(=O)[C@H](CC(=O)O)NC(=O)[C@H](Cc2cccnc2)NC(=O)[C@H](Cc2ccccc2)NC(=O)CSC[C@@H](C(=O)N[C@@H](C)C(N)=O)NC(=O)[C@H]([C@@H](C)O)NC(=O)[C@H](C(C)C)NC(=O)[C@H](CC2CCCCC2)NC(=O)[C@H](CCN)NC(=O)[C@@H](CC(C)C)NC(=O)[C@H](CCCN)NC1=O (stereo partly drawn) [Compound 2229] ({CH2CO}-F[3Pal]DWV[Bip][Ile(3ξ)][Orn][dL][Dab][Cha]VTCA-NH2; thioether N-14)
11.4	CC(C)C[C@H]1NC(=O)[C@H](CCCN)NC(=O)[C@H](CCCNC(N)=O)NC(=O)[C@H](Cc2ccc(-c3ccccc3)cc2)NC(=O)[C@H](C(C)C)NC(=O)[C@H](Cc2c[nH]c3ccccc23)NC(=O)[C@H](CC(=O)O)NC(=O)[C@](C)(Cc2ccccc2)NC(=O)[C@H](CN)NC(=O)CSC[C@@H](C(=O)N[C@@H](C)C(N)=O)NC(=O)[C@H]([C@@H](C)O)NC(=O)[C@H](C(C)C)NC(=O)[C@H](CC2CCCCC2)NC(=O)[C@H](CCN)NC1=O [Compound 2137] ({CH2CO}-[Dap][αMeF]DWV[Bip][Cit][Orn][dL][Dab][Cha]VTCA-NH2; thioether N-14)
16.9	CC(C)C[C@H]1NC(=O)[C@H](CCCN)NC(=O)[C@H](C(C)C)NC(=O)[C@H](Cc2ccc(-c3ccccc3)cc2)NC(=O)[C@H](C(C)C)NC(=O)[C@H](Cc2c[nH]c3ccccc23)NC(=O)[C@H](CC(=O)O)NC(=O)[C@H](Cc2ccc(OCC(=O)O)cc2)NC(=O)[C@H](Cc2ccc(OCC(=O)O)cc2)NC(=O)CSC[C@@H](C(=O)N[C@@H](C)C(N)=O)NC(=O)[C@H]([C@@H](C)O)NC(=O)[C@H](C(C)C)NC(=O)[C@H](Cc2cccc(F)c2)NC(=O)[C@H](CCN)NC1=O [Compound 1674] ({CH2CO}-Y(Carboxymethyl)Y(Carboxymethyl)DWV[Bip]V[Orn][dL][Dab][Phe(3-F)]VTCA-NH2; thioether N-14)
20.8	CC(C)C[C@@H]1NC(=O)C(Cc2c[nH]c3ccccc23)NC(=O)[C@H](CC(=O)O)NC(=O)[C@H](Cc2ccc(O)cc2)NC(=O)[C@H](Cc2ccccc2)NC(=O)CSC[C@@H](C(=O)N[C@@H](C)C(N)=O)NC(=O)[C@H]([C@@H](C)O)NC(=O)[C@H](C(C)C)NC(=O)[C@H](CC(C)C)NC(=O)[C@H](CC(N)=O)NC(=O)[C@@H](CC(C)C)NC(=O)[C@H](CN)NC(=O)[C@H](C(C)C)NC(=O)[C@H](Cc2ccc(-c3ccccc3)cc2)NC1=O (stereo partly drawn) [Compound 1213] ({CH2CO}-FYD[ξW]L[Bip]V[Dap][dL]NLVTCA-NH2; thioether N-14)
19.4	Cc1cccc(C[C@@H]2NC(=O)[C@H](CC(=O)O)NC(=O)[C@H](Cc3ccc(OCC(=O)O)cc3)NC(=O)[C@H](CN)NC(=O)CSC[C@@H](C(=O)N[C@@H](CCN)C(N)=O)NC(=O)[C@H](CCCN)NC(=O)[C@H](C(C)C)NC(=O)[C@H](CC3CCCCC3)NC(=O)[C@H](CCN)NC(=O)[C@@H](CC(C)C)NC(=O)[C@H](CCNC(=O)C(C)(C)C)NC(=O)[C@H](Cc3ccc(O)cc3)NC(=O)[C@H](Cc3ccc(-c4ccccc4)cc3)NC(=O)[C@H](Cc3ccc(O)cc3)NC2=O)c1 [Compound 2038] ({CH2CO}-[Dap]Y(Carboxymethyl)D[Phe(3-Me)]Y[Bip]Y[Dab](Piv)[dL][Dab][Cha]V[Orn]C[Dab]-NH2; thioether N-14)
41.3	CC(C)C[C@H]1NC(=O)[C@H](CCCN)NC(=O)[C@H](CCC(=O)O)NC(=O)[C@H](Cc2ccc(-c3ccccc3)cc2)NC(=O)[C@H](C(C)C)NC(=O)[C@H](Cc2cc(F)c(F)c(F)c2)NC(=O)[C@H](CC(=O)O)NC(=O)[C@H](Cc2ccc(OCC(=O)O)cc2)NC(=O)[C@H](CN)NC(=O)CSC[C@@H](C(=O)N[C@@H](C)C(N)=O)NC(=O)[C@H]([C@@H](C)O)NC(=O)[C@H](C(C)C)NC(=O)[C@H](CC2CCCCC2)NC(=O)[C@H](CCN)NC1=O [Compound 2149]
488	Cc1cccc(C[C@@H]2NC(=O)[C@H](CC(=O)O)NC(=O)[C@H](Cc3ccc(F)cc3)NC(=O)[C@H](Cc3ccncc3)NC(=O)CSC[C@@H](C(=O)N[C@@H](CCN)C(N)=O)NC(=O)[C@H](Cc3c[nH]cn3)NC(=O)[C@H](C(C)(C)O)NC(=O)[C@H](CC3CCCCC3)NC(=O)[C@H](CCN)NC(=O)[C@@H](CC(C)C)NC(=O)[C@H](CCCN)NC(=O)[C@H](Cc3ccc(OCC(=O)O)cc3)NC(=O)[C@H](Cc3ccc(-c4ccccc4)cc3)NC(=O)[C@H](Cc3ccc(OCC(=O)O)cc3)NC2=O)c1 [Compound 2672] ({CH2CO}-[4Pal][Phe(4-F)]D[Phe(3-Me)]Y(Carboxymethyl)[Bip]Y(Carboxymethyl)[Orn][dL][Dab][Cha][Val(3-OH)]HC[Dab]-NH2; thioether N-14)
120	CC(C)C[C@@H]1NC(=O)[C@H](Cc2c[nH]c3ccccc23)NC(=O)[C@H](CC(=O)O)NC(=O)[C@H](Cc2ccc(O)cc2)NC(=O)[C@H](Cc2ccccc2)NC(=O)CSC[C@@H](C(=O)NCC(N)=O)NC(=O)[C@H](CO)NC(=O)[C@H](C(C)C)NC(=O)[C@H](CC(C)C)NC(=O)[C@H](CC(N)=O)NC(=O)[C@@H](C)NC(=O)[C@H](CCCN)NC(=O)[C@H](C(C)C)NC(=O)[C@H](Cc2ccc(-c3ccccc3)cc2)NC1=O [Compound 1093] ({CH2CO}-FYDWL[Bip]V[Orn][dA]NLVSCG-NH2; thioether N-14)
9.9	CCCC[C@@H]1NC(=O)[C@H](CCN)NC(=O)[C@@H](CC(C)C)NC(=O)[C@H](CCCN)NC(=O)[C@H]([C@@H](C)CC)NC(=O)[C@H](Cc2ccc(-c3ccccc3)cc2)NC(=O)[C@H](C(C)C)NC(=O)[C@H](Cc2cccc(C)c2)NC(=O)[C@H](CC(=O)O)NC(=O)[C@H](Cc2ccc(OCC(=O)O)cc2)NC(=O)[C@H](CN)NC(=O)CSC[C@@H](C(=O)N[C@@H](C)C(N)=O)NC(=O)[C@H]([C@@H](C)O)NC(=O)[C@H](C(C)C)NC1=O [Compound 1209]
12.6	CC(C)C[C@H]1NC(=O)[C@H](CCCN)NC(=O)[C@H](CCCNC(N)=O)NC(=O)[C@H](Cc2ccc(-c3ccccc3)cc2)NC(=O)[C@H](C(C)C)NC(=O)[C@H](Cc2c[nH]c3ccccc23)NC(=O)[C@H](CC(=O)O)NC(=O)[C@H](Cc2ccco2)NC(=O)[C@H](CN)NC(=O)CSC[C@@H](C(=O)N[C@@H](C)C(N)=O)NC(=O)[C@H]([C@@H](C)O)NC(=O)[C@H](C(C)C)NC(=O)[C@H](CC2CCCCC2)NC(=O)[C@H](CCN)NC1=O [Compound 2099] ({CH2CO}-[Dap][Ala(2-furyl)]DWV[Bip][Cit][Orn][dL][Dab][Cha]VTCA-NH2; thioether N-14)
45.3	CC(C)C[C@@H]1NC(=O)[C@H](CCCNC(=N)N)NC(=O)[C@@H](CC(C)C)NC(=O)[C@H](CCCCN)NC(=O)[C@H](CCCNC(=N)N)NC(=O)[C@H](Cc2ccc(-c3ccccc3)cc2)NC(=O)[C@H](C(C)C)NC(=O)[C@H](Cc2c[nH]c3ccccc23)NC(=O)[C@H](CC(=O)O)NC(=O)[C@H](Cc2ccc(O)cc2)NC(=O)[C@H](CC(N)=O)NC(=O)CSC[C@@H](C(=O)N[C@@H](C)C(N)=O)NC(=O)[C@H]([C@@H](C)O)NC(=O)[C@H](C(C)C)NC1=O [Compound 1007] ({CH2CO}-NYDWV[Bip]RK[dL]RLVTCA-NH2; thioether N-14)
68.6	CC(C)C[C@@H]1NC(=O)[C@H](Cc2c[nH]c3ccccc23)NC(=O)[C@H](CC(=O)O)NC(=O)[C@H](Cc2ccc(OCC(=O)O)cc2)NC(=O)[C@H](C(C)O)NC(=O)CSC[C@@H](C(=O)N[C@@H](CC(N)=O)C(N)=O)NC(=O)[C@H](CO)NC(=O)[C@H](C(C)C)NC(=O)[C@H](CC2CCCCC2)NC(=O)[C@H](CCN)NC(=O)[C@@H](CC(C)C)NC(=O)[C@H](CCCN)NC(=O)[C@H](CC(N)=O)NC(=O)[C@H](Cc2ccc(-c3ccccc3)cc2)NC1=O (stereo partly drawn) [Compound 2557] ({CH2CO}-[Thr(3ξ)]Y(Carboxymethyl)DWL[Bip]N[Orn][dL][Dab][Cha]VSCN-NH2; thioether N-14)
36	CC(C)C[C@@H]1NC(=O)[C@H](CCN)NC(=O)[C@@H](CC(C)C)NC(=O)[C@H](CCCN)NC(=O)[C@H](CCCNC(N)=O)NC(=O)[C@H](Cc2ccc(-c3ccccc3)cc2)NC(=O)[C@H](C(C)C)NC(=O)[C@H](Cc2c[nH]c3ccccc23)NC(=O)[C@H](CC(=O)O)NC(=O)[C@H](Cc2ccc(O)cc2)NC(=O)[C@H](CC(N)=O)NC(=O)CSC[C@@H](C(=O)N[C@@H](C)C(N)=O)NC(=O)[C@H](CO)NC(=O)[C@H](C(C)C)NC1=O [Compound 1109] ({CH2CO}-NYDWV[Bip][Cit][Orn][dL][Dab]LVSCA-NH2; thioether N-14)
